Experimental data taken from patent US20170275287A1, “NOVEL N2, N4, N7, 6-TETRASUBSTITUTED PTERIDINE-2,4,7-TRIAMINE AND 2, 4, 6, 7-TETRASUBSTITUTED PTERIDINE COMPOUNDS AND METHODS OF SYNTHESIS AND USE THEREOF” (Janus Biotherapeutics, Inc., priority 2014, published 2017).
Read-outs that look alike come from different tables or passages of the source.

Legend:
P-glycoprotein = target: T1, P-glycoprotein (Homo sapiens, UniProt P08183); assay: P-glycoprotein inhibition (CEREP); assay type: in vitro ADME
T1 construct: CEREP (contract laboratory)
T1 sequence (P08183 whole entry): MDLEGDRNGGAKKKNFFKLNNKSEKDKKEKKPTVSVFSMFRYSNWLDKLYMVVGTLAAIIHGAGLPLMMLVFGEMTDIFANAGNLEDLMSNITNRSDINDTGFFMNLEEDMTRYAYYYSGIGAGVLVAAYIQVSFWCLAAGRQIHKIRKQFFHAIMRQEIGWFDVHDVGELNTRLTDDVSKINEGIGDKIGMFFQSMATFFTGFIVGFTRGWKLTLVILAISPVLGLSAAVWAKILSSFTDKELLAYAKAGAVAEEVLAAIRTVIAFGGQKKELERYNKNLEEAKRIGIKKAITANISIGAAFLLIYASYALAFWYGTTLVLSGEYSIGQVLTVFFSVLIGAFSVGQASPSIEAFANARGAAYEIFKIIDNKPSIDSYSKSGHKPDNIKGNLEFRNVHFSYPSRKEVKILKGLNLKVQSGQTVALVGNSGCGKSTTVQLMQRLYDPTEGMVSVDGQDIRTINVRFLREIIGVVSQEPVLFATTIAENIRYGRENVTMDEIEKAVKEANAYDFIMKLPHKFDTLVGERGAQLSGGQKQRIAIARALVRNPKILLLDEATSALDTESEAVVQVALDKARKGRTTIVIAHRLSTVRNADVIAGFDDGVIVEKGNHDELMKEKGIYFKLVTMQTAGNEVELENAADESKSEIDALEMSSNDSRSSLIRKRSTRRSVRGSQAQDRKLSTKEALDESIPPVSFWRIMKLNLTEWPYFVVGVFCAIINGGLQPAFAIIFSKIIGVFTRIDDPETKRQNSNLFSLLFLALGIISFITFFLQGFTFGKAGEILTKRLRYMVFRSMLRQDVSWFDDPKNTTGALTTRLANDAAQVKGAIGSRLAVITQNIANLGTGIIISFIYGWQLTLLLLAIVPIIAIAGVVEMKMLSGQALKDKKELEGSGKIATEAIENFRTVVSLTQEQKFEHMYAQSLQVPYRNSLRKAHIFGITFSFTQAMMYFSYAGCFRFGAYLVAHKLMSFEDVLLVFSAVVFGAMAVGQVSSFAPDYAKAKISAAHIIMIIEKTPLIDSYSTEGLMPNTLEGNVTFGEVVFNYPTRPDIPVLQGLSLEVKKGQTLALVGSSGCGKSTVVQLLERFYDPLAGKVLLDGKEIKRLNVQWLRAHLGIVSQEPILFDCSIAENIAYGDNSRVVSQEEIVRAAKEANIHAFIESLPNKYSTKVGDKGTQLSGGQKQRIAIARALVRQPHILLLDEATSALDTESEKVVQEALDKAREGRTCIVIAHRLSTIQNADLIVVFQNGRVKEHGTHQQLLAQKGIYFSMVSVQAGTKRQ
Description: Preliminary screening measures were conducted by CEREP. All values fall within acceptable limits (Table 5). Solubility assays where performed by CEREP, Seattle, Wash., according to Lipinski, C. A. et al., 1997, Adv. Drug Del. Rev., 46:3-26. Protein binding assays where performed by CEREP, Seattle, Wash., according to Banker, M. J. et al., 2003, J. Pharm. Sci., 92:967-974. Permeability assays where performed by CEREP, Seattle, Wash. according to Hildalgo, I. J., 1998, Gastroenterology, 96:736-749. Metabolic stability assays where performed by CEREP, Seattle, Wash., according to Obach, R. S. et al., 1997, J. Pharmacol. Exp. Ther., 283:46-58. P-glycoprotein inhibition assays where performed by CEREP, Seattle, Wash., according to Polli, J. W. et al., 2001, J. Pharm. Exp. Ther., 299:620-628. Cell viability assays where performed by CEREP, Seattle, Wash., according to Mosmann, T., 1983, J. Immunol. Met. 65:55-62. hERG automated patch clamp assays where performed by CEREP, Seattle, Wash., according to Mathes, C., 2006, Expert Opin. Ther. Targets, 10:230-241.

[1] = Toxicokinetics of the 7-day tox study; assay type: in vivo, rats; conditions: for increase in AUC0-24 h for a 10-fold increase in dose / increase in Cmax for a 10-fold increase in dose: 10 to 100 mg/kg; for AUC / half-life / Cmax / Tmax / clearance / Vd / bioavailability: rat; for half-life: read-out: T½ (converted); for Vd: read-out: Vdss; for bioavailability: read-out: calculated oral absolute bioavailability
Description: A 7-day non-GLP tox study was performed in rats. […] The following parameters and end points were evaluated in this study: clinical signs, body weights, body weight changes, food consumption, clinical pathology parameters (hematology, coagulation, clinical chemistry, and urinalysis), toxicokinetic parameters, gross necropsy findings, organ weights, and histopathologic examinations.
Clinical signs and body weight changes in the TK animals were generally similar to the main toxicology phase animals. Select toxicokinetic parameters from Days 1 and 7 are included below in Table 11.

[2] = all three oral doses, whole blood
[3] = female, whole blood, iv, 5 mg/kg, Day 1, 5 mg/kg I.V., Female
[4] = female, whole blood, po, 10 mg/kg, Day 1, 10 mg/kg oral, Female
[5] = female, whole blood, po, 10 mg/kg, Day 7, 10 mg/kg oral, Female
[6] = female, whole blood, po, 30 mg/kg, Day 1, 30 mg/kg oral, Female
[7] = female, whole blood, po, 30 mg/kg, Day 7, 30 mg/kg oral, Female
[8] = female, whole blood, po, 100 mg/kg, Day 1, 100 mg/kg oral, Female
[9] = female, whole blood, po, 100 mg/kg, Day 7, 100 mg/kg oral, Female
[10] = male, whole blood, iv, 5 mg/kg, Day 1, 5 mg/kg I.V., Male
[11] = male, whole blood, po, 10 mg/kg, Day 1, 10 mg/kg oral, Male
[12] = male, whole blood, po, 10 mg/kg, Day 7, 10 mg/kg oral, Male
[13] = male, whole blood, po, 30 mg/kg, Day 1, 30 mg/kg oral, Male
[14] = male, whole blood, po, 30 mg/kg, Day 7, 30 mg/kg oral, Male
[15] = male, whole blood, po, 100 mg/kg, Day 1, 100 mg/kg oral, Male
[16] = male, whole blood, po, 100 mg/kg, Day 7, 100 mg/kg oral, Male
[17] = whole blood, iv, Day 1, 5 mg/kg I.V., Female
[18] = whole blood, iv, Day 1, 5 mg/kg I.V., Male

CN1CCN(c2nc(NCCN3CCOCC3)c3nc(Cl)c(NCCN4CCOCC4)nc3n2)CC1 [JB6121, 6-chloro-2-(4-methylpiperazin-1-yl)-N^4,N^7-bis(2-morpholinoethyl)pteridine-4,7-diamine]
inhibition at 100 µM (P-glycoprotein): 1% | 7-day accumulation ([1]; 7 day toxicokinetics versus 24 h PK whole blood exposures): approximately 2 fold | F (0-x) ([1]; Day 1, 10 mg/kg oral, Female): 8.10% | F (0-x) ([1]; Day 1, 10 mg/kg oral, Male): 13.3% | F (0-x) ([1]; Day 1, 30 mg/kg oral, Female): 37.2% | F (0-x) ([1]; Day 1, 30 mg/kg oral, Male): 28.0% | F (0-x) ([1]; Day 1, 100 mg/kg oral, Female): 91.0% | F (0-x) ([1]; Day 1, 100 mg/kg oral, Male): 78.5% | increase in AUC0-24 h for a 10-fold increase in dose ([1]; Day 1, female): 113 fold | increase in Cmax for a 10-fold increase in dose ([1]; Day 1, female): 43 fold | increase in AUC0-24 h for a 10-fold increase in dose ([1]; Day 1, male): 59 fold | increase in Cmax for a 10-fold increase in dose ([1]; Day 1, male): 32 fold | increase in AUC0-24 h for a 10-fold increase in dose ([1]; Day 7, female): 38 fold | increase in Cmax for a 10-fold increase in dose ([1]; Day 7, female): 20 fold | increase in AUC0-24 h for a 10-fold increase in dose ([1]; Day 7, male): 48 fold | increase in Cmax for a 10-fold increase in dose ([1]; Day 7, male): 24 fold | average D7/D1 AUC0-24 h ratio [1, 2]: 2.79 | average D7/D1 Cmax ratio [1, 2]: 1.71 | AUC [1, 3]: 2.21 µg·h/mL | half-life [1, 3]: 10.8 h | AUC [1, 4]: 0.357 µg·h/mL | Cmax [1, 4]: 0.092 µg/mL | Tmax [1, 4]: 3 h | half-life [1, 4]: 5.43 h | AUC [1, 5]: 2.12 µg·h/mL | Cmax [1, 5]: 0.26 µg/mL | Tmax [1, 5]: 3 h | half-life [1, 5]: 18.2 h | AUC [1, 6]: 4.92 µg·h/mL | Cmax [1, 6]: 0.643 µg/mL | Tmax [1, 6]: 3 h | half-life [1, 6]: 8.8 h | AUC [1, 7]: 8.89 µg·h/mL | Cmax [1, 7]: 0.639 µg/mL | Tmax [1, 7]: 6 h | half-life [1, 7]: 14.3 h | AUC [1, 8]: 40.3 µg·h/mL | Cmax [1, 8]: 3.98 µg/mL | Tmax [1, 8]: 3 h | half-life [1, 8]: 9.39 h | AUC [1, 9]: 80.2 µg·h/mL | Cmax [1, 9]: 5.31 µg/mL | Tmax [1, 9]: 3 h | half-life [1, 9]: 14.1 h | AUC [1, 10]: 2.79 µg·h/mL | half-life [1, 10]: 10.2 h | AUC [1, 11]: 0.743 µg·h/mL | Cmax [1, 11]: 0.122 µg/mL | Tmax [1, 11]: 3 h | half-life [1, 11]: 14.1 h | AUC [1, 12]: 1.91 µg·h/mL | Cmax [1, 12]: 0.181 µg/mL | Tmax [1, 12]: 3 h | half-life [1, 12]: 19.9 h | AUC [1, 13]: 4.7 µg·h/mL | Cmax [1, 13]: 0.582 µg/mL | Tmax [1, 13]: 3 h | half-life [1, 13]: 9.39 h | AUC [1, 14]: 11.1 µg·h/mL | Cmax [1, 14]: 0.805 µg/mL | Tmax [1, 14]: 6 h | half-life [1, 14]: 18.4 h | AUC [1, 15]: 43.8 µg·h/mL | Cmax [1, 15]: 3.95 µg/mL | Tmax [1, 15]: 3 h | half-life [1, 15]: 11.9 h | AUC [1, 16]: 91.2 µg·h/mL | Cmax [1, 16]: 6.28 µg/mL | Tmax [1, 16]: 3 h | half-life [1, 16]: 40.4 h | slope of Cmax versus dose ([1]; pooled 7-day exposure data, 0 to 30 mg/kg): 28.24 ng/mL/mg/kg | clearance [1, 17]: 1.89 L/h/kg | Vd [1, 17]: 23.1 L/kg | clearance [1, 18]: 1.48 L/h/kg | Vd [1, 18]: 18.1 L/kg | bioavailability ([1]; whole blood, po, Day 1, 10 mg/kg): 13.3% | bioavailability ([1]; whole blood, po, Day 1, 30 mg/kg): 28% | bioavailability ([1]; whole blood, po, Day 1, 100 mg/kg): 78.5%
